Reference: patent US9050330B2, “Method, composition and kit for treating frequent headaches” (priority 2012, dated 2015)

Tests used:
sphenopalatine ganglion = settings: cited from earlier work; for duration of anesthesia provided to the nerve structure: long-acting local anesthetics in SPGB
[1] = test system: tension headaches and migraines; experiment: Earlier treatment of Patient 1 (tension headaches and migraines); format: in vivo, human; settings: Patient 1, before the composition
Source text: This patient was a person who experienced tension headaches and migraines. The pain was acute producing nauseas and vomits.

Structure (SMILES) | duration of anesthesia provided to the nerve structure (sphenopalatine ganglion) | outcome of earlier treatment [1] | also measured
CCCCN1CCCCC1C(=O)Nc1c(C)cccc1C (centres unmarked) [bupivacaine] | at least about an hour | – | –
CCN(CC)CC(=O)Nc1c(C)cccc1C [lidocaine] | – | – | period for which head pain is decreased (equal to the duration of the analgesia) (sphenopalatine ganglion; shorter-acting local anesthetic in SPGB): less than an hour
Cc1ccccc1C(OCCN(C)C)c1ccccc1 (centres unmarked) [norflex] | – | without success | –
COc1ccc2cc(CCC(C)=O)ccc2c1 [relafen] | – | without success | –
CCCN1CCCC[C@H]1C(=O)Nc1c(C)cccc1C [ropivacaine] | at least about an hour | – | –
